The source of these data is patent US7521057B2, “Lamprey GnRH-III polypeptides and methods of making thereof” (University of New Hampshire, priority 2002, dated 2009).

Where two headings read alike, the source gives them in different places. [ ]: non-standard residue; d: D form. pGlu = O=C1CC[C@@H](C(=O)O)N1

In data set [1] the test system is adult male and female sea lamprey. The settings on record: compared to controls, cited from earlier work; for spawning behavior: experiment 2, females.
Data set [2] relates to adult sea lampreys. The settings on record: cited from earlier work; for plasma estradiol: adult female lampreys, injections; for ovulation / timing of ovulation: female lampreys; for gametogenesis: male and female sea lampreys, previous studies.
In data set [3] the target is type-I GnRH-binding site. Description: Competition binding in pituitary of male sea lampreys, type-I GnRH binding site. More on the design: species or system P. marinus. Conditions: for Ki: pituitary of adult male land-locked P. marinus, tracer iodinated [DAla6, Pro9Net]-mammalian GnRH, K1 from IC50. The method, then:
(§1) In another study, the binding affinity in the pituitary of male sea lampreys was determined with lamprey GnRH-I and -III analogs in an effort to better understand the structure-activity relations of the lamprey GnRH molecule (Mateme and Sower, unpublished). Competition studies were performed using the iodinated DAla^6, Pro^9Net]-mammalian GnRH as the tracer with each of the following analogs: [D-Phe^2, Gly^6]-lGnRH-I (Peninsula Labs, Cali.); and the following lGnRH-III analogs: [D-Phe^2,6, Pro^3], [D-Phe^2, Gly^6], and [Ac-Delta-3Pro, 4FDPhe^2-D-Trp^3,6] from American Peptide, Cali. […] The level of significance was P<0.0001 See TABLE 5 for the results of these experiments. The results shown in Table 5 summarize experiments using various analogs.
(§2) Inhibition constants (K1) of lamprey GnRH-putative antagonists in the pituitary of adult male land-locked P. marinus. […] The data were plotted on a logit-log plot and the K1 determined from the IC50 using the Prism software.

The target in data set [4] is type-II GnRH binding site. The experiment in a line: Competition binding in pituitary of male sea lampreys, type-II GnRH binding site. Also noted: species or system P. marinus. The settings on record: for Ki: pituitary of adult male land-locked P. marinus, tracer iodinated [DAla6, Pro9Net]-mammalian GnRH, K1 from IC50. The method, then: as §1, §2
Data set [5] in a line: Plasma GnRHa after injection of sustained-release microspheres or implants in lampreys. It counts as in vivo, sea lamprey. The method, then:
Thus, experiments were conducted to determine the optimal injection site and delivery agent that would best ensure a slow, constant release of the active compound, in this case, D-Ala^6 Pro^9Net mammal GnRH (GnRHa) over a period of four weeks. In the plasma, GnRH is easily degraded by protolytic enzymes. Therefore a simple injection will not elevate plasma GnRH levels for the duration of time required to ensure the appropriate reproductive effect. If a GnRH analog were used to sterilize wild fish, the method would have to maintain high levels of GnRH in the plasma for the length of the spawning season, or about 6 weeks in the case of sea lamprey in the Great Lakes. It was believed that controlled release of GnRH could be attained by injection of biodegradable microspheres or implants containing a GnRH analog, and experiments were performed to determine if high enough GnRH levels could be maintained for the required duration using such a method.
In Applicant's experiments microspheres (in a dose of 75 ug GnRHa/lamprey) and 2 mm implants were injected either intramuscularly (IM) or intraperitoneally (IP). At week 1, plasma GnRHa was detected in two-thirds of the lampreys injected IP, either with microspheres (5.0+/−1.3 ng/ml) or implants (1.6+/−0.3 ng/ml).
Only the lampreys injected IM with microspheres still had detectable levels of GnRHa after 3 weeks (2.9+/−1.5 ng/ml). Based on the results of these experiments, the best method of sustained release of GnRHa was determined to be via IM injection using microspheres.

[6] abbreviates: pituitary of male sea lampreys, in words.

For “lamprey GnRH-I: native decapeptide pGlu His Tyr Ser Leu Glu Trp Lys Pro Gly-NH2 (Table 1) ([pGlu]HYSLEWKPG-NH2; SMILES CC(C)C[C@H](NC(=O)[C@H](CO)NC(=O)[C@H](Cc1ccc(O)cc1)NC(=O)[C@H](Cc1c[nH]cn1)NC(=O)[C@@H]1CCC(=O)N1)C(=O)N[C@@H](CCC(=O)O)C(=O)N[C@@H](Cc1c[nH]c2ccccc12)C(=O)N[C@@H](CCCCN)C(=O)N1CCC[C@H]1C(=O)NCC(N)=O)”, the spawning activity result in data set [1] (experiment 3, males) is “delayed spawning activity”. In data set [2] (adult sea lampreys), the spermiation/ovulation result was “induce” and the steroidogenesis result is “induce”.
By Ki is commonly meant the equilibrium dissociation constant of an inhibitor or competing ligand from its target. In the case of `CCNC(=O)[C@@H]1CCCN1C(=O)[C@H](CCCNC(=N)N)NC(=O)[C@H](CC(C)C)NC(=O)[C@@H](C)NC(=O)[C@H](Cc1ccc(O)cc1)NC(=O)[C@H](CO)NC(=O)[C@H](Cc1c[nH]c2ccccc12)NC(=O)[C@H](Cc1c[nH]cn1)NC(=O)[C@@H]1CCC(=O)N1` [[DAla^6, Pro^9Net]-m GnRH, [DAla^6, Pro^9Net]-mammalian GnRH], the inhibition constant Ki stood at 0.00311 nM in data set [3] and 89 nM in data set [4]. In data set [3] (setting [6]), the “affinity for type-I GnRH binding site” value is listed as “high affinity”. In data set [4] (setting [6]), the “affinity for type-II GnRH binding site” value is on record as “high affinity”. This molecule came in with a level at 504 h in data set [5] (plasma, 75 ug GnRHa/lamprey, after 3 weeks, microspheres injected IM) of 2.9 ng/mL. Further, the level at 168 h in data set [5] (plasma, 75 ug GnRHa/lamprey, week 1, microspheres injected IM) was 4.2 ng/mL; in data set [5] (plasma, week 1, 2 mm implants injected IP) it was 1.6 ng/mL; in data set [5] (plasma, week 1, microspheres injected IP, 75 ug GnRHa/lamprey) it was 5 ng/mL. Further, in data set [5] (plasma, 75 ug GnRHa/lamprey, week 2, microspheres injected IM), the level at 336 h came out at 3.1 ng/mL. Further, the “share of lampreys with detectable plasma GnRHa” value is on record as “two-thirds” in data set [5] (week 1, injected IP, microspheres or implants); “Ninety percent” in data set [5] (week 1, microspheres injected IM); “less than thirty percent” in data set [5] (week 2, IP with microspheres and IP with implants); “ninety-two percent” in data set [5] (week 2, microspheres injected IM). The plasma estradiol result in data set [2] is “significantly elevated”. The “ovulation / timing of ovulation” value in data set [2] is listed as “advanced ovulation by at least several weeks”.
As to “[D-Phe^2, Gly^6]-lGnRH-I [[D-Phe^2, Gly^6]-1GnRH-I]”, the Ki came out at 1.37 nM in data set [3] and 5650 nM in data set [4].
As for “[D-Ala^6, Pro^9 Net lamprey GnRH] [lamprey GnRH agonist]”, the spawning behavior result in data set [1] was “inhibited”. Further, the spawning activity entry in data set [1] (experiment 2, males) was “stimulated earlier spawning activity”; in data set [1] (experiment 3, males) it was “inhibited spawning activity”.
As to “[Ac-3 Pro^1, 4-FD-Phe^3, D-Trp^3,6] mammalian GnRH”, in data set [2], the plasma estradiol result is “no apparent effect”, the “ovulation / timing of ovulation” value was “no apparent effect” and the gametogenesis entry was “decrease gametogenesis”.
[D-Phe^2,6, Pro^3] lamprey GnRH: the spawning behavior result in data set [1] is on record as “inhibited”. Also, the spawning activity result in data set [1] (experiment 2, males) was “stimulated earlier spawning activity”. For the same molecule, in data set [1] (experiment 3, males), the spawning activity result was “induced earlier spawning activity”. Also, in data set [2], the “ovulation / timing of ovulation” value is recorded as “inhibited ovulation” and the gametogenesis entry was “decrease gametogenesis”. Also, in data set [2] (male sea lampreys), the plasma progesterone levels entry is given as “reduced” and the spermiation result is given as “inhibited spermiation”.
